The results in this text go back to ChEMBL document CHEMBL3400109, “Synthesis and biological evaluation of C-13' substituted 7'-homo-anhydrovinblastine derivatives” (Bioorg Med Chem Lett, 2015).

Assay [1] is described as follows: Cytotoxicity against human U87 cells assessed as inhibition of cell proliferation after 72 hrs. In kind it is functional, cell-based, U-87MG ATCC. Particulars: U-87 MG.
For a further assay, the system named is K562. Nature of the assay: Cytotoxicity against human K562 cells assessed as inhibition of cell proliferation after 72 hrs. In kind it is functional, cell-based. Particulars: K562, 72 h.
The nature of assay [2]: Cytotoxicity against human HCT116 cells assessed as inhibition of cell proliferation after 72 hrs. In kind it is functional, cell-based. Conditions: HCT-116, 72 h.
In the next assay the target is Tubulin (Homo sapiens) (UniProt P68371+Q9H4B7+P0DPH7+P68366+Q13509+Q71U36+P04350+Q3ZCM7+P07437+P68363+Q9BQE3+Q6PEY2+Q13885+Q9BVA1+Q9BUF5). Description: (§1) Inhibition of tubulin (unknown origin) polymerization at 10 mg/ml. In kind it is protein-complex assay.
Assay [3] deals with Tubulin. The assay is described as §1. In kind it is protein-complex assay, Homo sapiens.
Assay [4] has as its target Tubulin. Description: Inhibition of tubulin (unknown origin) polymerization. The assay is classed as protein-complex assay, Homo sapiens.

pIC50: −log10 of the molar value.

With `CCC1=CC2CN(/C=C(/C(=O)OC)Cc3c([nH]c4ccc(C)cc34)[C@@](C(=O)OC)(c3cc4c(cc3OC)N(C)[C@H]3[C@@](O)(C(=O)OC)[C@H](OC(C)=O)[C@]5(CC)C=CCN6CC[C@]43[C@@H]65)C2)C1` (stereo partly specified), the pIC50 (usually the IC50 on a negative log10 scale, so that one unit is a factor of ten) in assay [1] is 7.96; in the assay with K562, 7.70; in assay [2], 7.30. On Tubulin (Homo sapiens), the inhibition (as a rule, the percentage by which the read-out fell short of the control) was found to be 23%.

For `C#Cc1ccc2[nH]c3c(c2c1)C/C(C(=O)OC)=C(/C(=O)NC(C)C)N1CC(CC)=CC(C1)C[C@]3(C(=O)OC)c1cc2c(cc1OC)N(C)[C@H]1[C@@](O)(C(=O)OC)[C@H](OC(C)=O)[C@]3(CC)C=CCN4CC[C@]21[C@@H]43` (stereo partly specified), the pIC50 in assay [1] was 5.70; with K562, 6.22; in assay [2], 5.52. For the same compound, the inhibition on Tubulin (Homo sapiens) was determined as 16%.

`CCC1=CC2CN(C1)/C(C(=O)NC(C)C)=C(/C(=O)OC)Cc1c([nH]c3ccc(I)cc13)[C@@](C(=O)OC)(c1cc3c(cc1OC)N(C)[C@H]1[C@@](O)(C(=O)OC)[C@H](OC(C)=O)[C@]4(CC)C=CCN5CC[C@]31[C@@H]54)C2` (stereo partly specified): the pIC50 in assay [1] was 5.52; in assay [2] it was 5.30. Also, the inhibition at Tubulin (Homo sapiens) was found to be 44%.

With `CCC1=CC2CN(/C=C(/C(=O)OC)Cc3c([nH]c4ccc(I)cc34)[C@@](C(=O)OC)(c3cc4c(cc3OC)N(C)[C@H]3[C@@](O)(C(=O)OC)[C@H](OC(C)=O)[C@]5(CC)C=CCN6CC[C@]43[C@@H]65)C2)C1` (stereo partly specified), the pIC50 was 5.30 in assay [1], 6.00 in the assay on K562, 5.15 in assay [2] and 5.21 against Tubulin [3].

On to `CCC1=CC2CN(C1)/C(C(=O)NC(C)C)=C(/C(=O)OC)Cc1c([nH]c3ccc(C=O)cc13)[C@@](C(=O)OC)(c1cc3c(cc1OC)N(C)[C@H]1[C@@](O)(C(=O)OC)[C@H](OC(C)=O)[C@]4(CC)C=CCN5CC[C@]31[C@@H]54)C2` (stereo partly specified), for which the pIC50 in assay [1] was 6.92; with K562, 7.80; in assay [2], 7.33. This compound had an inhibition at Tubulin (Homo sapiens) of 25%.

In the case of `CCC1=CC2CN(C1)/C(C(=O)NC(C)C)=C(/C(=O)OC)Cc1c([nH]c3ccc(C)cc13)[C@@](C(=O)OC)(c1cc3c(cc1OC)N(C)[C@H]1[C@@](O)(C(=O)OC)[C@H](OC(C)=O)[C@]4(CC)C=CCN5CC[C@]31[C@@H]54)C2` (stereo partly specified), the pIC50 was 7.48 in assay [1], 9.00 in the assay with K562 and 7.70 in assay [2]. Also, on Tubulin (Homo sapiens), the inhibition turned out to be 0%.

Regarding `CCC1=CC2CN(/C=C(/C(=O)OC)Cc3c([nH]c4ccc(C=O)cc34)[C@@](C(=O)OC)(c3cc4c(cc3OC)N(C)[C@H]3[C@@](O)(C(=O)OC)[C@H](OC(C)=O)[C@]5(CC)C=CCN6CC[C@]43[C@@H]65)C2)C1` (stereo partly specified), the pIC50 was 7.64 in assay [1], 7.40 in the assay on K562 and 6.57 in assay [2]. On Tubulin (Homo sapiens), the inhibition came out at 11%.

For `CC[C@]1(O)C[C@@H]2CN(CCc3c([nH]c4ccccc34)[C@@](C(=O)OC)(c3cc4c(cc3OC)N(C)[C@H]3[C@@](O)(C(=O)OC)[C@H](OC(C)=O)[C@]5(CC)C=CCN6CC[C@]43[C@@H]65)C2)C1` [VINBLASTINE], the results for the pIC50 (in assay [1]; in the assay on K562; in assay [2]) were 9.00, 8.00 and 8.70, respectively.

`CCC1=CC2CN(/C=C(/C(=O)OC)Cc3c([nH]c4ccc(Br)cc34)[C@@](C(=O)OC)(c3cc4c(cc3OC)N(C)[C@H]3[C@@](O)(C(=O)OC)[C@H](OC(C)=O)[C@]5(CC)C=CCN6CC[C@]43[C@@H]65)C2)C1` (stereo partly specified): the values for the pIC50 (in assay [1]; in the assay with K562; in assay [2]) were 5.52, 6.30 and 5.52, respectively. Also, the inhibition against Tubulin (Homo sapiens) was 23%.

For the compound `C#Cc1ccc2[nH]c3c(c2c1)C/C(C(=O)OC)=C\N1CC(CC)=CC(C1)C[C@]3(C(=O)OC)c1cc2c(cc1OC)N(C)[C@H]1[C@@](O)(C(=O)OC)[C@H](OC(C)=O)[C@]3(CC)C=CCN4CC[C@]21[C@@H]43` (stereo partly specified), the pIC50 was 5.80 in assay [1], 6.22 in the assay on K562 and 5.60 in assay [2]. At Tubulin (Homo sapiens), this compound returned an inhibition of 27%.

For the compound `CCC1=C[C@@H]2CN(C1)Cc1c([nH]c3ccccc13)[C@@](C(=O)OC)(c1cc3c(cc1OC)N(C)[C@H]1[C@@](O)(C(=O)OC)[C@H](OC(C)=O)[C@]4(CC)C=CCN5CC[C@]31[C@@H]54)C2` [VINORELBINE], the pIC50 in assay [1] is 8.46; in assay [2] it was 7.82; against Tubulin [4], 6.15.
